From patent publication US8546405B2, “Anti-viral compounds” (Abbott Laboratories, priority 2008, dated 2013)

Tested on: replicon 1b-Con1
Experiment: HCV subgenomic replicon luciferase reporter assay, replicon 1b-Con1
Assay type: cell-based, Hepatitis C virus (HCV) genotype 1b-Con1
Settings: Hepatitis C virus, 72 h; stable subgenomic replicon cell line, luciferase reporter, three days incubation; values given as ranges or bound

`CC(C)c1ccc2c(Nc3cc(-c4ccc(-c5ccc(Sc6ccc(N)cc6)c(Nc6ncnc7nc(C(C)C)ccc67)c5)cc4)ccc3Sc3ccc(N)cc3)ncnc2n1` [Example 4, 4,4″-(4-amino-phenylsulfanyl)-N*3*,N*3″*-(7-isopropylpyrido[2,3-d]pyrimidin-4-yl)-[1,1′;4′,1″]terphenyl-3,3″-diamine] and `CC(C)c1ccc2c(Nc3cc(-c4ccc(-c5ccc(Sc6ccc(N)cc6)c(Nc6ncnc7nc(C(C)C)ccc67)c5)nc4)ccc3Sc3ccc(N)cc3)ncnc2n1` [Example 12] fall in the same range of IC50: 0.1 to 10 nM for the first, 0.1 to 10 nM for the second.

`CC(C)c1ccc2c(Nc3cc(C#Cc4ccc(Sc5ccc(OCc6ccccc6)cc5)c(Nc5ncnc6nc(C(C)C)ccc56)c4)ccc3Sc3ccc(OCc4ccccc4)cc3)ncnc2n1` [Example 26] and `CC(C)c1ccc2c(Nc3cc(C#Cc4ccc(Sc5ccccc5)c(Nc5ncnc6nc(C(C)C)ccc56)c4)ccc3Sc3ccccc3)ncnc2n1` [Example 15] fall in the same range of IC50: 0.1 to 10 nM for the first, 0.1 to 10 nM for the second.

First: CC(C)c1ccc2c(Nc3cc(C#Cc4ccc(Sc5cccc(N)c5)c(Nc5ncnc6nc(C(C)C)ccc56)c4)ccc3Sc3cccc(N)c3)ncnc2n1 [Example 19]
Second: CC(C)c1ccc2c(Nc3cc(C#Cc4ccc(Sc5ccc(N)cc5)c(Nc5ncnc6nc(C(C)C)ccc56)c4)ccc3Sc3ccc(N)cc3)ncnc2n1 [Example 8, N,N′-(5,5′-(ethyne-1,2-diyl)bis(2-(4-aminophenylthio)-5,1-phenylene))bis(7-isopropylpyrido[2,3-d]pyrimidin-4-amine)]
The IC50 of the first is higher: 0.1 to 10 nM for the first, < 0.1 nM for the second. The second is the more potent here.

Compared with `CC(C)c1ccc2c(Nc3cc(CN(Cc4ccc(Sc5ccc(N)cc5)c(Nc5ncnc6nc(C(C)C)ccc56)c4)c4ccccc4)ccc3Sc3ccc(N)cc3)ncnc2n1` [Example 9], `CC(C)c1ccc2c(Nc3cc(CN(Cc4ccc(Sc5ccc(N)cc5)c(Nc5ncnc6nc(C(C)C)ccc56)c4)C(C)C)ccc3Sc3ccc(N)cc3)ncnc2n1` [Example 24] is higher in IC50: < 0.1 nM for the first, 0.1 to 10 nM for the second.

`Cc1ccc2c(Nc3cc(-c4ccc(-c5ccc(Sc6ccc(N)cc6)c(Nc6ncnc7nc(C)ccc67)c5)cc4)ccc3Sc3ccc(N)cc3)ncnc2n1` [Example 13] and `Cc1ccc2c(Nc3cc(C#Cc4ccc(Sc5ccc(N)cc5)c(Nc5ncnc6nc(C)ccc56)c4)ccc3Sc3ccc(N)cc3)ncnc2n1` [Example 21] fall in the same range of IC50: 0.1 to 10 nM for the first, 0.1 to 10 nM for the second.

`COc1ccc(CN(Cc2ccc(Sc3ccc(N)cc3)c(Nc3ncnc4nc(C(C)C)ccc34)c2)Cc2ccc(Sc3ccc(N)cc3)c(Nc3ncnc4nc(C(C)C)ccc34)c2)c(OC)c1` [Example 11] and `CC(C)c1ccc2c(Nc3cc(NC(=O)c4ccc(Sc5ccc(N)cc5)c(Nc5ncnc6nc(C(C)C)ccc56)c4)ccc3Sc3ccc(N)cc3)ncnc2n1` [Example 2, 4-(4-aminophenylthio)-N-(4-(4-aminophenylthio)-3-(7-isopropylpyrido[2,3-d]pyrimidin-4-ylamino)phenyl)-3-(7-isopropylpyrido[2,3-d]pyrimidin-4-ylamino)benzamide] fall in the same range of IC50: 0.1 to 10 nM for the first, 0.1 to 10 nM for the second.

`CC(C)c1ccc2c(Nc3cc(C#Cc4ccc(Oc5ccc(N)cc5)c(Nc5ncnc6nc(C(C)C)ccc56)c4)ccc3Oc3ccc(N)cc3)ncnc2n1` [Example 20] and `CC(C)c1ccc2c(Nc3cc(C#Cc4ccc(Oc5ccc(O)cc5)c(Nc5ncnc6nc(C(C)C)ccc56)c4)ccc3Oc3ccc(O)cc3)ncnc2n1` [Example 25] fall in the same range of IC50: 0.1 to 10 nM for the first, 0.1 to 10 nM for the second.

`Cc1ccc2c(Nc3cc(C#Cc4ccc(Sc5ccc(F)cc5)c(Nc5ccnc6nc(C)ccc56)c4)ccc3Sc3ccc(F)cc3)ccnc2n1` [Example 22] and `COc1ccc(Sc2ccc(CN(Cc3ccc(Sc4ccc(OC)cc4)c(Nc4ccnc5nc(C)ccc45)c3)C(C)C)cc2Nc2ccnc3nc(C)ccc23)cc1` [Example 28] fall in the same range of IC50: 10 to 100 nM for the first, 10 to 100 nM for the second.

`CC(C)c1ccc2c(Nc3cc(C#Cc4ccc(Sc5ccc(O)cc5)c(Nc5ncnc6nc(C(C)C)ccc56)c4)ccc3Sc3ccc(O)cc3)ncnc2n1` [Example 18] and `CC(C)c1ccc2c(Nc3cc(C#Cc4ccc(Sc5ccc(F)cc5)c(Nc5ncnc6nc(C(C)C)ccc56)c4)ccc3Sc3ccc(F)cc3)ncnc2n1` [Example 14] fall in the same range of IC50: 0.1 to 10 nM for the first, 0.1 to 10 nM for the second.

First: CC(C)c1ccc2c(Nc3cc(C#Cc4ccc(Sc5ccc(N(C)C)cc5)c(Nc5ncnc6nc(C(C)C)ccc56)c4)ccc3Sc3ccc(N(C)C)cc3)ncnc2n1 [Example 16]
Second: CC(C)c1ccc2c(Nc3cc(NC(=O)Nc4ccc(Sc5ccc(N)cc5)c(Nc5ncnc6nc(C(C)C)ccc56)c4)ccc3Sc3ccc(N)cc3)ncnc2n1 [Example 3, 1,3-bis(4-(4-aminophenylthio)-3-(7-isopropylpyrido[2,3-d]pyrimidin-4-ylamino)phenyl)urea]
The IC50 of the first is lower: 0.1 to 10 nM for the first, 10 to 100 nM for the second. The first is the more potent here.

`CC(C)c1ccc2c(Nc3cc(C(=O)NCCNC(=O)c4ccc(Sc5ccc(N)cc5)c(Nc5ncnc6nc(C(C)C)ccc56)c4)ccc3Sc3ccc(N)cc3)ncnc2n1` [Example 5, N,N′-(ethane-1,2-diyl)bis(4-(4-aminophenylthio)-3-(7-isopropylpyrido[2,3-d]pyrimidin-4-ylamino)benzamide)] and `CC(C)c1ccc2c(Nc3cc(C(=O)NNC(=O)c4ccc(Sc5ccc(N)cc5)c(Nc5ncnc6nc(C(C)C)ccc56)c4)ccc3Sc3ccc(N)cc3)ncnc2n1` [Example 1, 4-(4-aminophenylthio)-N′-(4-(4-aminophenylthio)-3-(7-isopropylpyrido[2,3-d]pyrimidin-4-ylamino)benzoyl)-3-(7-isopropylpyrido[2,3-d]pyrimidin-4-ylamino)benzohydrazide] fall in the same range of IC50: 0.1 to 10 nM for the first, 0.1 to 10 nM for the second.

`CC(C)c1ccc2c(Nc3cc(C#Cc4ccc(Oc5ccc(CO)cc5)c(Nc5ncnc6nc(C(C)C)ccc56)c4)ccc3Oc3ccc(CO)cc3)ncnc2n1` [Example 23] and `CC(C)c1ccc2c(Nc3cc(C#Cc4ccc(Oc5ccccc5)c(Nc5ncnc6nc(C(C)C)ccc56)c4)ccc3Oc3ccccc3)ncnc2n1` [Example 17] fall in the same range of IC50: 0.1 to 10 nM for the first, 0.1 to 10 nM for the second.

For `CC(C)c1ccc2c(Nc3cc(C(=O)N4CCN(C(=O)c5ccc(Sc6ccc(N)cc6)c(Nc6ncnc7nc(C(C)C)ccc67)c5)CC4)ccc3Sc3ccc(N)cc3)ncnc2n1` [Example 6, piperazine-1,4-diylbis((4-(4-aminophenylthio)-3-(7-isopropylpyrido[2,3-d]pyrimidin-4-ylamino)phenyl)methanone)], the IC50 was 0.1 to 10 nM.

Same assay, conditions: Hepatitis C virus; same test; cell prints lower limit in nM and upper limit in μM

`CC(C)c1ccc2c(Nc3cccc(C(=O)Nc4ccc(Sc5ccc(N)cc5)c(Nc5ncnc6nc(C(C)C)ccc56)c4)c3)ncnc2n1` [Example 7, N-(4-(4-aminophenylthio)-3-(7-isopropylpyrido[2,3-d]pyrimidin-4-ylamino)phenyl)-3-(7-isopropylpyrido[2,3-d]pyrimidin-4-ylamino)benzamide] and `CC(C)c1ccc2c(Nc3cc(C(=O)NCCNC(=O)c4ccc(Sc5ccccc5)c(Nc5ncnc6nc(C(C)C)ccc56)c4)ccc3Sc3ccccc3)ncnc2n1` [Example 10] fall in the same range of IC50: 100 to 10000 nM for the first, 100 to 10000 nM for the second.
